Assay results taken from paper PMC12699471 (RSC Advances, 2025).
Entries after “also recorded” stand apart in the source; their conditions may differ.

What was measured:
Assay type in all cases: cell-based, human
MCF-7 cells [1] = assay: Microscopic analysis of cell morphology, MCF-7 cells; conditions: 48 h treatment; for cell morphology / cell death under the microscope: 10× magnification
MDA-MB-231 cells = assay: MTT cell viability assay, MDA-MB-231 cells; conditions: for cell survival: MDA-MB-231 cells, 100 µM, 48 h, MTT
MCF-7 cells [2] = assay: MTT cell viability assay, MCF-7 cells

Structure (SMILES)	breast cancer cell inhibitory activity as concluded from microscopy (MCF-7 cells [1])	cell morphology / cell death under the microscope (MCF-7 cells [1])	cell survival (MDA-MB-231 cells)	IC50 (MCF-7 cells [2]; Homo sapiens, MCF7)	cell survival (MCF-7 cells [2]; MCF-7 cells, 100 µM, 48 h, MTT)	IC50 (MDA-MB-231 cells; Homo sapiens, MDA-MB-231)
CCOC(=O)C1=C(COCc2cn(CCN3C(=O)C(=O)c4cc(Cl)ccc43)nn2)N=C2SC=CN2C1c1cccc(Cl)c1 (centres unmarked) [Compound 14c]	highest breast cancer cell inhibitory activity	significant changes in their morphology; also recorded: mostly dead				
CC/C(=C(\c1ccccc1)c1ccc(OCCN(C)C)cc1)c1ccccc1 [Tamoxifen, tamoxifen, reference compound]		significant changes in their morphology; also recorded: mostly dead	63%			
CCOC(=O)C1=C(COCc2cn(CCN3C(=O)C(=O)c4ccccc43)nn2)N=C2SC=CN2C1c1cccc(Cl)c1 (centres unmarked) [Compound 14a]	highest breast cancer cell inhibitory activity	mostly dead	58%	81.9 ± 2.26 µM	~52%	42.3 ± 0.83 µM
CCOC(=O)C1=C(COCc2cn(CCN3C(=O)C(=O)c4cc(F)ccc43)nn2)N=C2SC=CN2C1c1cccc(Cl)c1 (centres unmarked) [Compound 14d]	not showing breast cancer cell growth inhibition	significant changes in their morphology				
CCOC(=O)C1=C(COCc2cn(C3OC(COC(C)=O)C(OC(C)=O)C(OC(C)=O)C3OC(C)=O)nn2)N=C2SC=CN2C1c1cccc(Cl)c1 (centres unmarked) [Compound 15]	highest breast cancer cell inhibitory activity	mostly dead				
